How the values were obtained:
Chinese sprangletop = assay: Test Example 3: herbicidal effect by foliage application, Wagner pot (Table 18, symbol D); format: in vivo, chinese sprangletop (Leptochloa chinensis); details: for herbicidal effect on D (Chinese sprangletop), rating 0-5: 320 g/ha; for herbicidal effect on D: Chinese sprangletop: amount of applied herbicide 320 g/ha
Method in brief: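 Plants were sown in alluvial soil held under 0.1–0.5 cm standing water and grown 14 days in a greenhouse at 25–30 °C. An emulsifiable formulation, water-diluted to the set dose, was then sprayed onto the foliage, and effects were scored three weeks later using previously defined criteria.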

persian speedwell = assay: Test Example 4: herbicidal effect by soil treatment (Table 19, symbol R); format: in vivo, Persian speedwell (Veronica persica); details: for herbicidal effect rating, R: persian speedwell / herbicidal effect on R: persian speedwell: amount of applied herbicide 320 g/ha
Method in brief: (§1)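 Soil-surface application: an emulsion agent diluted with water to the predetermined dose is sprayed uniformly over seeds lying under roughly 1.5 cm of sterilized diluvial soil. Boxes stay in a greenhouse at 25° C. to 30° C. Three weeks later, each species is graded on previously defined criteria.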

windgrass = assay: Test Example 4: herbicidal effect by soil treatment (Table 19, symbol L); format: in vivo, windgrass (Apera spica-venti); details: for herbicidal effect rating, L: windgrass / herbicidal effect on L: windgrass: amount of applied herbicide 320 g/ha
Method in brief: as §1

late watergrass = assay: Test Example 1: herbicidal activity, application before weed generation under submerged conditions (Table 16, symbol A); format: in vivo, late watergrass (Echinochloa oryzicola); details: 320 g/ha applied herbicide
Method in brief: (§2)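 Alluvial soil was flooded to 4 cm depth, weed seeds were sown mixed and 2.5-leaf rice seedlings were transplanted. On sowing day, the compound's emulsion, diluted in water to a set dose, was applied to the water surface. Plants grew at 25–30 °C and were scored 0–5 after three weeks.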

Japanese bulrush = assay: Test Example 1: herbicidal activity, application before weed generation under submerged conditions (Table 16, symbol B); format: in vivo, Japanese bulrush (Schoenoplectus juncoides); details: 320 g/ha applied herbicide
Method in brief: as §2

false cleavers [1] = assay: Test Example 4: herbicidal effect by soil treatment (Table 19, symbol Q); format: in vivo, false cleavers (Galium spurium); details: amount of applied herbicide 320 g/ha
Method in brief: as §1

oval-leafed pondweed [2] = assay: Test Example 2: herbicidal activity, application during weed generation under submerged conditions (Table 17, symbol C); format: in vivo, oval-leafed pondweed (Monochoria vaginalis); details: AAH 320 g/ha; application during weed generation, submerged conditions
Method in brief: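 Effect on each weed is rated three weeks post-treatment, using the same scoring criteria as the preceding test. Plants grow from mixed-sown seed in flooded alluvial soil (4 cm water) at 25° C. to 30° C., and are treated at one to two leaves with diluted emulsion dropped onto the water.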

blackgrass = assay: Test Example 4: herbicidal effect by soil treatment (Table 19, symbol J); format: in vivo, blackgrass (Alopecurus myosuroides)
Method in brief: as §1

barnyard grass = assay: Test Example 5: herbicidal effect by foliage application, plastic box (Table 20, symbol H); format: in vivo, barnyard grass (Echinochloa crus-galli); details: foliage application; for H: barnyard grass, herbicidal effect (criteria 0-5): evaluated three weeks after application
Method in brief: (§3)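 Sow seeds spot-wise in sterilized diluvial soil; cover with ~1.5 cm soil. Grow 14 days in greenhouse, 25° C. to 30° C. Spray foliage with emulsion diluted to predetermined amount. Rate effect after 3 weeks.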

southern crabgrass = assay: Test Example 5: herbicidal effect by foliage application, plastic box (Table 20, symbol F); format: in vivo, southern crabgrass (Digitaria ciliaris); details: foliage application; for F: southern crabgrass, herbicidal effect (criteria 0-5): evaluated three weeks after application
Method in brief: as §3

lambsquarters = assay: Test Example 5: herbicidal effect by foliage application, plastic box (Table 20, symbol O); format: in vivo, lambsquarters (Chenopodium album); details: foliage application; for O: lambsquarters, herbicidal effect (criteria 0-5): evaluated three weeks after application
Method in brief: as §3

oval-leafed pondweed [3] = assay: Test Example 1: herbicidal activity, application before weed generation under submerged conditions (Table 16, symbol C); format: in vivo, oval-leafed pondweed (Monochoria vaginalis); details: 320 g/ha applied herbicide
Method in brief: as §2

false cleavers [4] = assay: Test Example 5: herbicidal effect by foliage application, plastic box (Table 20, symbol Q); format: in vivo, false cleavers (Galium spurium); details: foliage application
Method in brief: as §3

[5] = amount of applied herbicide 320 g/ha
[6] = 320 g/ha, three weeks after application
[7] = AAH 320 g/ha, three weeks after application
[8] = 320 g/ha, 3 weeks after application

| SMILES | herbicidal effect on D (Chinese sprangletop), rating 0-5 (Chinese sprangletop) | herbicidal effect rating, R: persian speedwell (persian speedwell) | herbicidal effect rating, L: windgrass (windgrass) | Herbicidal effect on A: late watergrass (grade 0-5) (late watergrass) | Herbicidal effect on B: Japanese bulrush (grade 0-5) (Japanese bulrush) | herbicidal effect rating, Q: false cleavers (false cleavers [1]) | herbicidal effect rating, C: oval-leafed pondweed (oval-leafed pondweed [2]) | herbicidal effect rating, J: blackgrass (blackgrass; [5]) | herbicidal effect grade, H: barnyard grass (barnyard grass; [6]) | herbicidal effect grade, F: southern crabgrass (southern crabgrass; [6]) | herbicidal effect grade, O: lambsquarters (lambsquarters; [6]) | Herbicidal effect on C: oval-leafed pondweed (grade 0-5) (oval-leafed pondweed [3]) | herbicidal effect on D: Chinese sprangletop (Chinese sprangletop) | herbicidal effect on R: persian speedwell (persian speedwell) | herbicidal effect on L: windgrass (windgrass) | H: barnyard grass, herbicidal effect (criteria 0-5) (barnyard grass; AAH 320 g/ha) | F: southern crabgrass, herbicidal effect (criteria 0-5) (southern crabgrass; AAH 320 g/ha) | O: lambsquarters, herbicidal effect (criteria 0-5) (lambsquarters; AAH 320 g/ha) | also measured |
| --- | --- | --- | --- | --- | --- | --- | --- | --- | --- | --- | --- | --- | --- | --- | --- | --- | --- | --- | --- |
| Cc1nn(C)c(=O)c(-c2c(-c3ccc(OC(C)C)cc3)sc3ccccc23)c1O [1-020] | 1 (Herbicidal rate of 5% or more and less than 20%) | 5 (Herbicidal rate of 90% or more (almost completely withered)) | 0 (Herbicidal rate of 5% or less (almost no effect)) | 4 (Herbicidal rate of 70% or more and less than 90%) | 5 (Herbicidal rate of 90% or more (almost completely withered)) | 0 (Herbicidal rate of 5% or less (almost no effect)) | 3 (Herbicidal rate of 40% or more and less than 70%) | 1 (Herbicidal rate of 5% or more and less than 20%) | 4 (Herbicidal rate of 70% or more and less than 90%) | 3 (Herbicidal rate of 40% or more and less than 70%) | 2 (Herbicidal rate of 20% or more and less than 40%) | 4 (Herbicidal rate of 70% or more and less than 90%) |  |  |  |  |  |  |  |
| CCCC(=O)Oc1c(C)nn(C)c(=O)c1-c1c(-c2ccc(SC)cc2)sc2ccccc12 [1-037] | 3 (Herbicidal rate of 40% or more and less than 70%) | 3 (Herbicidal rate of 40% or more and less than 70%) | 0 (Herbicidal rate of 5% or less (almost no effect)) | 4 (Herbicidal rate of 70% or more and less than 90%) | 4 (Herbicidal rate of 70% or more and less than 90%) | 0 (Herbicidal rate of 5% or less (almost no effect)) | 3 (Herbicidal rate of 40% or more and less than 70%) | 0 (Herbicidal rate of 5% or less (almost no effect)) | 4 (Herbicidal rate of 70% or more and less than 90%) | 3 (Herbicidal rate of 40% or more and less than 70%) | 5 (Herbicidal rate of 90% or more (almost completely withered)) | 3 (Herbicidal rate of 40% or more and less than 70%) |  |  |  |  |  |  |  |
| C=CCOc1ccccc1-c1sc2ccccc2c1-c1c(O)c(C)nn(C)c1=O [1-110] | 3 (Herbicidal rate of 40% or more and less than 70%) | 3 (Herbicidal rate of 40% or more and less than 70%) |  | 3 (Herbicidal rate of 40% or more and less than 70%) | 0 (Herbicidal rate of 5% or less (almost no effect)) |  | 0 (Herbicidal rate of 5% or less (almost no effect)) | 2 (Herbicidal rate of 20% or more and less than 40%) |  |  |  | 4 (Herbicidal rate of 70% or more and less than 90%) |  |  |  |  |  |  | Q: false cleavers, herbicidal effect (false cleavers [4]; [7]): 5 (Herbicidal rate of 90% or more (almost completely withered)); H: barnyard grass, herbicidal effect (barnyard grass; [7]): 3 (Herbicidal rate of 40% or more and less than 70%); F: southern crabgrass, herbicidal effect (southern crabgrass; [7]): 4 (Herbicidal rate of 70% or more and less than 90%); O: lambsquarters, herbicidal effect (lambsquarters; [7]): 0 (Herbicidal rate of 5% or less (almost no effect)) |
| Cc1nn(C)c(=O)c(-c2c(-c3ccc(OCC(F)F)cc3)sc3ccccc23)c1O [1-203] | 4 (Herbicidal rate of 70% or more and less than 90%) |  |  | 5 (Herbicidal rate of 90% or more (almost completely withered)) | 5 (Herbicidal rate of 90% or more (almost completely withered)) |  | 4 (Herbicidal rate of 70% or more and less than 90%) |  |  |  |  | 4 (Herbicidal rate of 70% or more and less than 90%) |  |  |  |  |  |  | R: persian speedwell, herbicidal effect rating (persian speedwell; AAH 320 g/ha): 5 (Herbicidal rate of 90% or more (almost completely withered)); effect on false cleavers (Q) (false cleavers [4]; [8]): 5 (Herbicidal rate of 90% or more (almost completely withered)); L: windgrass, herbicidal effect rating (windgrass; AAH 320 g/ha): 0 (Herbicidal rate of 5% or less (almost no effect)); J: blackgrass, herbicidal effect rating (blackgrass; AAH 320 g/ha): 3 (Herbicidal rate of 40% or more and less than 70%); effect on barnyard grass (H) (barnyard grass; [8]): 5 (Herbicidal rate of 90% or more (almost completely withered)); effect on southern crabgrass (F) (southern crabgrass; [8]): 3 (Herbicidal rate of 40% or more and less than 70%); effect on lambsquarters (O) (lambsquarters; [8]): 5 (Herbicidal rate of 90% or more (almost completely withered)) |
| C=CCOC(=O)Oc1c(C)nn(C)c(=O)c1-c1c(-c2ccc(OC(F)F)cc2)sc2ccc(F)cc12 [2-294] |  |  |  | 5 (Herbicidal rate of 90% or more (almost completely withered)) | 5 (Herbicidal rate of 90% or more (almost completely withered)) |  | 3 (Herbicidal rate of 40% or more and less than 70%) |  |  |  |  | 4 (Herbicidal rate of 70% or more and less than 90%) | 4 (Herbicidal rate of 70% or more and less than 90%) | 5 (Herbicidal rate of 90% or more (almost completely withered)) | 4 (Herbicidal rate of 70% or more and less than 90%) | 5 (Herbicidal rate of 90% or more (almost completely withered)) | 5 (Herbicidal rate of 90% or more (almost completely withered)) | 5 (Herbicidal rate of 90% or more (almost completely withered)) | Q: false cleavers, herbicidal effect (criteria 0-5) (false cleavers [4]; AAH 320 g/ha, evaluated three weeks after application): 5 (Herbicidal rate of 90% or more (almost completely withered)) |
| Cc1nn(C)c(=O)c(-c2c(-c3ccc(CSCC(F)(F)F)cc3)sc3ccc(F)cc23)c1O [2-331] |  |  |  | 3 (Herbicidal rate of 40% or more and less than 70%) | 3 (Herbicidal rate of 40% or more and less than 70%) |  | 0 (Herbicidal rate of 5% or less (almost no effect)) |  |  |  |  | 0 (Herbicidal rate of 5% or less (almost no effect)) | 0 (Herbicidal rate of 5% or less (almost no effect)) | 4 (Herbicidal rate of 70% or more and less than 90%) | 0 (Herbicidal rate of 5% or less (almost no effect)) | 5 (Herbicidal rate of 90% or more (almost completely withered)) | 5 (Herbicidal rate of 90% or more (almost completely withered)) | 5 (Herbicidal rate of 90% or more (almost completely withered)) | herbicidal effect on Q: false cleavers (false cleavers [1]): 0 (Herbicidal rate of 5% or less (almost no effect)); herbicidal effect on J: blackgrass (blackgrass; [5]): 0 (Herbicidal rate of 5% or less (almost no effect)) |
